Source: patent publication US12172995B2, “Substituted indole and indazole compounds” (BRISTOL-MYERS SQUIBB COMPANY, priority 2018, dated 2024)

Assays:
Assay type in all cases: cell-based
human TLR7 = target: T1, human TLR7 (Homo sapiens, UniProt Q9NYK1); experiment: TLR7 inhibition reporter assay (HEK-Blue SEAP); conditions: HEK-Blue cells overexpressing human TLR7, stimulated with gardiquimod 7.5 μM, 22 hour incubation
T1 construct: host or cells: HEK-Blue cells
T1 sequence (Q9NYK1 27-1049): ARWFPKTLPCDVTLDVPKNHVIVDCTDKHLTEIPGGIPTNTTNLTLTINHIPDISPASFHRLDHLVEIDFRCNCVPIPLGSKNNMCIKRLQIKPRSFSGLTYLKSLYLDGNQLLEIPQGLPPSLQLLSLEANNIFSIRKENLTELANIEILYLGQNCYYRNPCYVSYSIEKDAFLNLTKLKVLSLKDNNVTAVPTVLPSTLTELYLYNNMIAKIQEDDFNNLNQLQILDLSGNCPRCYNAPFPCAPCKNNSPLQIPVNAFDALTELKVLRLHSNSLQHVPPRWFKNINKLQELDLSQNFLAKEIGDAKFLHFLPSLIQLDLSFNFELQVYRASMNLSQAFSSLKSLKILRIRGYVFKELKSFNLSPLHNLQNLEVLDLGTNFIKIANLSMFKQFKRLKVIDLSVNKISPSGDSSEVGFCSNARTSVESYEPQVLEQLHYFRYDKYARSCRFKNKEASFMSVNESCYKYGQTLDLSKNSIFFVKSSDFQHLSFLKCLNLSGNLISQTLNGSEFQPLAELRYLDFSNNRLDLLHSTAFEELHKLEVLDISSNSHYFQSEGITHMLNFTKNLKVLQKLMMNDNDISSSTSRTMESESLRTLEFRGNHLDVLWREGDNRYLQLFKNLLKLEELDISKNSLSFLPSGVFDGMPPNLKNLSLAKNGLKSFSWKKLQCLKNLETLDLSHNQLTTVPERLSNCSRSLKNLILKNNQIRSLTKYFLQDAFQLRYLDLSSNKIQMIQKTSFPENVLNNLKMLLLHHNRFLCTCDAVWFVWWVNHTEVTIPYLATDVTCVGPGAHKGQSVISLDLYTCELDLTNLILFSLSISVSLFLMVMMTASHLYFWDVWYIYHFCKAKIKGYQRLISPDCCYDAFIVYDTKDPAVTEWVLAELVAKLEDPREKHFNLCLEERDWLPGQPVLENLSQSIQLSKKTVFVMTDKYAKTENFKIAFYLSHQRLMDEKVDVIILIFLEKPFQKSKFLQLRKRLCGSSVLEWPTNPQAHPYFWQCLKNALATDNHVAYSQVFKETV
In short: (§1)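 Percent inhibition reflects SEAP reduction after 22 h at 37° C, relative to agonist-plus-DMSO and known-inhibitor controls. Compounds (0.05 nM to 50 μM) were added 30 min before agonist: TLR9 cells received ODN2006 5 nM, TLR8 cells R848 15.9 μM, TLR7 cells gardiquimod 7.5 μM; human receptor-expressing HEK-Blue reporter lines.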

human TLR8 = target: T2, human TLR8 (Homo sapiens, UniProt Q9NR97); experiment: TLR8 inhibition reporter assay (HEK-Blue SEAP); conditions: HEK-Blue cells overexpressing human TLR8, stimulated with R848 15.9 μM, 22 hour incubation
T2 construct: host or cells: HEK-Blue cells
T2 sequence (Q9NR97 27-1041): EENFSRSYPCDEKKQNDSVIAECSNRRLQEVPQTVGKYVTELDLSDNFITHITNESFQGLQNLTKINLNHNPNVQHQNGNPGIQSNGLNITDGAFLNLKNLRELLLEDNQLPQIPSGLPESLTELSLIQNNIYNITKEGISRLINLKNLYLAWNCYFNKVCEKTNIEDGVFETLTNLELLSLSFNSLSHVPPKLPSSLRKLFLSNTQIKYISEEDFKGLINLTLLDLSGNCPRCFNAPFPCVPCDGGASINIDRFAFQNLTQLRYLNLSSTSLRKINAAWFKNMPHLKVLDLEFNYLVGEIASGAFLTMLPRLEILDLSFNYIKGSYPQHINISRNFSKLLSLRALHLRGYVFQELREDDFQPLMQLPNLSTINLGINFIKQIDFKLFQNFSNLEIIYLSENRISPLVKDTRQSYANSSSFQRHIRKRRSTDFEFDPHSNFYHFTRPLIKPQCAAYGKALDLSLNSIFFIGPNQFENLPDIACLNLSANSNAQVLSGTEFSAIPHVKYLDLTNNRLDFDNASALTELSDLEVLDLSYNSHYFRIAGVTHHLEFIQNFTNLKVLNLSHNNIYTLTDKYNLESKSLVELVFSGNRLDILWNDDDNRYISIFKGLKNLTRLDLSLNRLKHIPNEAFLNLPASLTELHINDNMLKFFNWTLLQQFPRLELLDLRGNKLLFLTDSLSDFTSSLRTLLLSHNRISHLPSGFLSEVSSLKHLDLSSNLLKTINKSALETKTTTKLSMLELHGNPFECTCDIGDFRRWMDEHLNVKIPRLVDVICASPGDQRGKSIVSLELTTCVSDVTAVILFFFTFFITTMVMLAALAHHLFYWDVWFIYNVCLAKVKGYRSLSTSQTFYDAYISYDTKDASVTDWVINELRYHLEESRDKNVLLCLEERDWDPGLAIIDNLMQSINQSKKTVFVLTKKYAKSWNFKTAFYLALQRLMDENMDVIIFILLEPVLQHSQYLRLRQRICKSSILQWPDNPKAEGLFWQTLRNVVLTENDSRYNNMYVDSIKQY
In short: as §1

human TLR9 = target: T3, human TLR9 (Homo sapiens, UniProt Q9NR96); experiment: TLR9 inhibition reporter assay (HEK-Blue SEAP); conditions: HEK-Blue cells overexpressing human TLR9, stimulated with ODN2006 5 nM, 22 hour incubation
T3 construct: host or cells: HEK-Blue cells
T3 sequence (Q9NR96 26-1032): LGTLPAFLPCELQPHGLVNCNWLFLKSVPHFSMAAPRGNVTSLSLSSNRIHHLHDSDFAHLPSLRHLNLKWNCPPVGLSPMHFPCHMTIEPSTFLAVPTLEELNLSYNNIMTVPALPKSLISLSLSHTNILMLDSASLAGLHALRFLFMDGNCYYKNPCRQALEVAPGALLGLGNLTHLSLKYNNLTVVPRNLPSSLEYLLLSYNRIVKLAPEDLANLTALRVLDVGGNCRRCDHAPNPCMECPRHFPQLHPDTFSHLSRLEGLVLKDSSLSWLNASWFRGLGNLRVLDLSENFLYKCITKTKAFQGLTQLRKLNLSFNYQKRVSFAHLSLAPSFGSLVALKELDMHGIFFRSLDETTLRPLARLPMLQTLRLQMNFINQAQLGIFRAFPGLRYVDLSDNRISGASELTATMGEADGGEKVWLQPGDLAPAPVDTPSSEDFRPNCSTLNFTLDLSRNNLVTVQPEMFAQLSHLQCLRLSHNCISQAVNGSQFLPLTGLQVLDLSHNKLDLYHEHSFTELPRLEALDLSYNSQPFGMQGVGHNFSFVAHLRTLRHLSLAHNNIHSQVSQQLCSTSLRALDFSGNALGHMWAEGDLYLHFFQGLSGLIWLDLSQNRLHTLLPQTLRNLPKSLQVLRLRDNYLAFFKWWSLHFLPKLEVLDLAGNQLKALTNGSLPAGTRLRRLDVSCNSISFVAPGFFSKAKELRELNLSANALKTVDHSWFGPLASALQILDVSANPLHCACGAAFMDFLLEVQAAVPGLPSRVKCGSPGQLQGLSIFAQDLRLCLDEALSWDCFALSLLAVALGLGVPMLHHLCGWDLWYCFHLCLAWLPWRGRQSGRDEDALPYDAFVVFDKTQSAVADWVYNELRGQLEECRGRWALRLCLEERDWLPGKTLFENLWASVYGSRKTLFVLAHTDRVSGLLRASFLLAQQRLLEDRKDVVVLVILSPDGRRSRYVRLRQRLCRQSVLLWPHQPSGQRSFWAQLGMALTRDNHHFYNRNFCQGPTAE
In short: as §1

SMILES	IC50 (human TLR7)	IC50 (human TLR8)	IC50 (human TLR9)
Cc1cc2c(C3CCC(NCC(=O)N(C)C)CC3)n[nH]c2cc1-c1cc(C)c2ncnn2c1 (single isomer, unassigned) [Example 29, N,N-dimethyl-2-((4-(5-methyl-6-(8-methyl-[1,2,4]triazolo[1,5-a]pyridin-6-yl)-1H-indazol-3-yl)cyclohexyl)amino)acetamide]	39 nM	0.9 nM	6340 nM
Cc1cc2c(C3CNC3)n[nH]c2cc1-c1cc(C)c2ncnn2c1 [Example 49, 6-(3-(azetidin-3-yl)-5-methyl-1H-indazol-6-yl)-8-methyl-[1,2,4]triazolo[1,5-a]pyridine]	174 nM	15.3 nM	1890 nM
COc1cc(-c2cc3[nH]nc(C4CCC(N5CC(OC)C5)CC4)c3cc2C(C)C)cn2ncnc12 (single isomer, unassigned) [Example 147, 6-(5-isopropyl-3-(4-(3-methoxyazetidin-1-yl)cyclohexyl)-1H-indazol-6-yl)-8-methoxy-[1,2,4]triazolo[1,5-a]pyridine]	0.4 nM	0.2 nM	13100 nM
CCc1cc2c(C3CCN(CC#N)CC3)n[nH]c2cc1-c1cc(C)c2ncnn2c1 [Example 104, 2-(4-(5-ethyl-6-(8-methyl-[1,2,4]triazolo[1,5-a]pyridin-6-yl)-1H-indazol-3-yl)piperidin-1-yl)acetonitrile]	6.9 nM	0.8 nM	13600 nM
Cc1cc2c(C3CCN(CCNS(C)(=O)=O)CC3)n[nH]c2cc1-c1cc(C)c2ncnn2c1 [Example 69, N-(2-(4-(5-methyl-6-(8-methyl-[1,2,4]triazolo[1,5-a]pyridin-6-yl)-1H-indazol-3-yl)piperidin-1-yl)ethyl) methanesulfonamide]	18 nM	1.4 nM	1310 nM
Cc1cc(-c2cc3[nH]nc(C4CCN(C5COC5)CC4)c3cc2C(C)C)cn2ncnc12 [Example 120, 6-(5-isopropyl-3-(1-(oxetan-3-yl)piperidin-4-yl)-1H-indazol-6-yl)-8-methyl-[1,2,4]triazolo[1,5-a]pyridine]	7.4 nM	1.1 nM	≥ 50000 nM
Cc1cc2c(OC3CCC(N(C)C)CC3)n[nH]c2cc1-c1cc(C)c2ncnn2c1 (single isomer, unassigned) [Example 181, N,N-dimethyl-4-((5-methyl-6-(8-methyl-[1,2,4]triazolo[1,5-a]pyridin-6-yl)-1H-indazol-3-yl)oxy)cyclohexan-1-amine]	71.7 nM	19.9 nM	≥ 50000 nM
Cc1cc(-c2cc3[nH]nc(C4CCC(NC5CC5)CC4)c3cc2C(C)C)cn2ncnc12 (single isomer, unassigned) [Example 119, N-cyclopropyl-4-(5-isopropyl-6-(8-methyl-[1,2,4]triazolo[1,5-a]pyridin-6-yl)-1H-indazol-3-yl)cyclohexan-1-amine]	1 nM	0.1 nM	4920 nM
CCc1cc(-c2cc(C)c3ncnn3c2)cc2[nH]nc(OC3CCN(CC(=O)N(C)C)CC3)c12 [Example 196, 2-(4-((4-ethyl-6-(8-methyl-[1,2,4]triazolo[1,5-a]pyridin-6-yl)-1H-indazol-3-yl)oxy)piperidin-1-yl)-N,N-dimethylacetamide]	4.9 nM	1 nM	5760 nM
CCc1cc(-c2cc(C)c3ncnn3c2)cc2[nH]nc(C3CCN(C(=O)CN(C)C)CC3)c12 [Example 110, 2-(dimethylamino)-1-(4-(4-ethyl-6-(8-methyl-[1,2,4]triazolo[1,5-a]pyridin-6-yl)-1H-indazol-3-yl)piperidin-1-yl)ethan-1-one]	2.4 nM	1.8 nM	3860 nM
COc1cc(-c2cc3[nH]nc(C4CCC(N(C)C)CC4)c3cc2C(C)C)cn2ncnc12 (single isomer, unassigned) [Example 141, 4-(5-isopropyl-6-(8-methoxy-[1,2,4]triazolo[1,5-a]pyridin-6-yl)-1H-indazol-3-yl)-N,N-dimethylcyclohexan-1-amine]	5.3 nM	2.9 nM	3720 nM
Cc1cc2c(C3CCC(NC4CC4)CC3)n[nH]c2cc1-c1cc(C)c2ncnn2c1 (stereo not drawn) [Example 37, N-cyclopropyl-4-(5-methyl-6-(8-methyl-[1,2,4]triazolo[1,5-a]pyridin-6-yl)-1H-indazol-3-yl)cyclohexan-1-amine]	12.4 nM	0.4 nM	5140 nM
Cc1cc(-c2cc3[nH]nc(C4CCC(N5CC(F)C5)CC4)c3cc2C(C)C)cn2ncnc12 (stereo not drawn) [Example 151, 6-(3-(4-(3-fluoroazetidin-1-yl)cyclohexyl)-5-isopropyl-1H-indazol-6-yl)-8-methyl-[1,2,4]triazolo[1,5-a]pyridine]	1.4 nM	0.6 nM	8360 nM
